Source: US9464326B2, “Total and phosphorylated IL-1 receptor-associated kinase-1 and IL-1 receptor-associated kinase-4 as a biomarker for cancer progression and chemotherapy resistance” (University of Maryland, Baltimore, priority 2012, dated 2016)

Experiments:
Type in all cases: cell-based, human
Loucy = assay: Proliferation (3H-thymidine) of Loucy
From the text: CCRF-CEM, CEM/C1, CEM/C2, CEM-C7, Jurkat, Loucy, Molt-4, HSB-2, SUP-T1, Hut 78, HH, Hut 102, MO, and H9 T-leukemia and T-lymphoma cell lines were purchased from the American Type Culture Collection (Manassas, Va., USA). All of the cell lines were initially expanded and cryopreserved within one month of receipt. Cells were typically used for 6 months at which time a fresh vial of cryopreserved cells was used. Total T cells from healthy donors were isolated via negative selection followed by positive selection using a CD3+ selection kit (Invitrogen, Carlsbad, Calif.). T cells were isolated from patients with T-ALL bone marrow or peripheral blood samples containing more than 70% leukemia cells using a CD2+ isolation kit (STEMCELL Technologies, Vancouver, Canada). All tissues were collected under institutional IRB-approved protocols and all participants gave written informed assent/consent. For in vitro experiments, T-ALL cells were cultured in AIM-V medium supplemented with 20% human AB serum in the presence of recombinant human stem cell factor (50 ng/mL; Amgen, Thousand Oaks, Calif.), insulin (20 nM; Sigma-Aldrich, St Louis, Mo., USA) and IL-7 (50 ng/mL; R&D Systems, Minneapolis, Minn., USA). In other experiments, protein lysate was collected using the Full Moon Biosystems (Sunnyvale, Calif., USA) buffer prior to protein examination by western blot or protein array.
Cells were cultured in a 96-well plate (Corning Costar, Corning, N.Y., USA) with various concentrations of TLR ligands 1-9, starting at 10 μg/ml, in a final volume of 200 ul. TLR ligands were diluted 2-fold. Cell lines (25-40×10^3/well) were cultured for 54 hours, whereas fresh patient-derived T-ALL cells (200×10^3/well) were cultured for 30 hours prior to adding [^3H]-thymidine for 18 hours. After this time point, cells were harvested with a Packard Filter-Mate-96 cell harvester (Perkin Elmer, Waltham, Mass., USA) and counted on Packard Top Count-NXT (Perkin Elmer, Waltham, Mass., USA). Results were expressed as average counts per minute (cpm). In some experiments CCRF-CEM cells were pre-treated with TLR1-TLR2 ligand (Pam3CysK4; 2.5 ug/ml) for 48 hrs, washed, and then cultured in the presence of varying concentrations of FBS. Forty-eight hours later, proliferation (±SD) was determined by ^3H-thymidine incorporation. Alternatively, apoptosis was measured by flow cytometry after staining cells with Annexin-V (BD Pharmingen, San Diego, Calif., USA) and propidium iodide (Sigma). Cell number was counted under microscopy by staining cells with trypan blue. […]

CCRF-CEM cells = assay: Western blot of signaling proteins in CCRF-CEM; conditions: 5 uM, 48 hours, FIG. 3D
From the text: (FIG. 3C). […] (FIG. 3D). […] (FIG. 3D).

melanoma cells = assay: Western blot of phosphorylated NF-KB; conditions: 48 hrs, vs DMSO, FIG. 7C
Method: FIG. 7. TLR and TLR signaling-related protein expression profiles on melanoma cell lines. (A) The expression levels of TLR1-TLR10 and various TLR-related proteins were examined by Western blot in samples from human melanoma cell lines. (B) The TLR1-TLR2 ligand Pam3CysK4 was added to A375 cells for 48 hrs. Cytokine and chemokine production by was determined using a Milliplex cytokine/chemokine array. (C) IRAK-1,-4 inhibitor or vehicle alone (DMSO) was added to melanoma cells for 48 hrs. The level of phosphorylated and non-phosphorylated p65 subunit of NF-KB was determined by Western blot. (D) Cytokine and chemokine levels in the supernatant A375 cell culture were examined using a Milliplex cytokine/chemokine array 48 hours after adding IRAK-1,-4 inhibitor or DMSO. ANOVA; **P<0.001, *P<0.05.
Total cell extracts were prepared from melanoma cells. […] Melanoma tissue arrays were purchased from US Biomax, Inc (Rockville, Md.). For immunohistochemical staining samples were stained with mouse monoclonal anti-human phosphor-IRAK.-4 antibody (Abnova; dilution, 3.5 μg/ml) or normal mouse serum. […] IHC specimens were analyzed using “quick score” system in which the intensity of the immunohistochemical reaction was scored by multiplying the intensity 1 (weak), 2 (moderate), and 3 (strong) and the proportion of cells staining positively 0 (<10%), 1 (10-25%), 2 (26-50%), 3 (51-75%) or 4 (>75%).

A375 melanoma cells = assay: Western blot of cleaved PARP and caspase-3; conditions: for levels of cleaved PARP and caspase-3: 48 hrs, FIG. 8D
Method: FIG. 8. […] (A) A375 and Malme-3M melanoma cells were cultured with or without 2.5 μM of IRAK-1,-4 and in the presence varying concentrations of vinblastine, cisplatin or 5′ Fluorouracil. Forty-eight hours later apoptosis was evaluated by staining cells with annexin-V and propidium iodide and analyzed by flow cytometry. (B) A375 cells were transfected via electroporation with siRNA-IRAK-1,-4. IRAK-1 protein levels were examined by Western blotting. […], A375-psiRNA-hIRAK-1, A375-psiRNA-hIRAK-4, or cells expressing both psiRNA-hIRAK-1 and -4 were cultured in the presence of vinblastine (100 nmol/L) for 48 hours and apoptosis was examined by flow cytometry. (C) A375 melanoma cells were cultured in the presence of vehicle alone (DMSO) or various concentrations of IRAK-1,-4. Forty-eight hours later cell lysates were used to analyze the expression of levels of cleaved PARP or caspase-3 by Western blots. (D) A375 melanoma cells were cultured with or without 2.5 μM of IRAK.-1,-4 and in the presence or absence of vinblastine for 48 hrs. PARP and caspase-3 levels were determined by Western blot.
Total cell extracts were prepared from melanoma cells. […] Melanoma tissue arrays were purchased from US Biomax, Inc (Rockville, Md.). For immunohistochemical staining samples were stained with mouse monoclonal anti-human phosphor-IRAK.-4 antibody (Abnova; dilution, 3.5 μg/ml) or normal mouse serum. Tissue histology sections (5-μm-thick) were deparaffinized, hydrated, heated in boiling 10 mmol/L sodium citrate (pH 6.0), for antigen retrieval, for 30 min and washed in Tris buffer. Peroxide blocking was done with 3% […] in methanol at room temperature for 15 min, followed by 10% fetal bovine serum in TBS-t for 30 min at room temperature. Primary antibody incubation was done overnight at 4° C. Secondary antibody incubation with horse anti-mouse (1:200; Vector Laboratories, Burlingame, Calif.) was done for 1 hr, followed by application of diaminobenzidine chromogen for 5 min. The slides were then counterstained with hematoxylin and topped with a coverslip. IHC specimens were analyzed using “quick score” system in which the intensity of the immunohistochemical reaction was scored by multiplying the intensity 1 (weak), 2 (moderate), and 3 (strong) and the proportion of cells staining positively 0 (<10%), 1 (10-25%), 2 (26-50%), 3 (51-75%) or 4 (>75%).

Molecule	Proliferative effects of TLR ligands (Loucy; 3H-thymidine uptake, 72 h)	TLR ligand concentration in parentheses below the symbol (Loucy; no unit in table (μg/ml))	decrease of phosphorylated-p65 levels (CCRF-CEM cells)	p-ERK1/2 levels (CCRF-CEM cells)	reduction of p-AKT expression levels (CCRF-CEM cells)	reduction of p-mTOR expression levels (CCRF-CEM cells)	phosphorylated NF-KB (p-NF-KB) (melanoma cells)	levels of cleaved PARP and caspase-3 (A375 melanoma cells; 2.5 μmol/L IRAK-1,-4 inhibitor combined with vinblastine)	active caspase-3 (A375 melanoma cells; 10 μM, 48 h, FIG. 8C)	cleaved PARP (A375 melanoma cells; concentration-dependent, 48 h, FIG. 8C)	levels of cleaved PARP and caspase-3 (A375 melanoma cells; single agent alone)
tripalmitoyl-S-(bis(palmitoyloxy)propyl)-Cys-Ser-(Lys)3-Lys [Pam3Cysk4]	+ (enhanced proliferation by 25% or greater)	(2.5)									
O=C(Nc1nc2ccccc2n1CCN1CCOCC1)c1cccc([N+](=O)[O-])c1 [IRAK-1,-4 inhibitor]			four-fold	did not alter	five-fold	approximately six-fold	marked reduction	increased the levels	detected	Enhanced accumulation	little effect
